What was measured:
Format in all cases: binding
hTMPRSS2 = biological target: T1, hTMPRSS2 (Homo sapiens, UniProt O15393); assay: SPR (CM5 chip, hTMPRSS2 immobilised)
T1 construct: gene TMPRSS2; purified protein; immobilised on CM5 chip
Text: SPR (CM5 chip, hTMPRSS2 immobilised) on hTMPRSS2 | Through SPR assay, we validated that tetrandrine could also bind to TMPRSS2

HCoV-OC43 Spike = biological target: T2, HCoV-OC43 Spike (Human coronavirus OC43, UniProt P36334); assay: SPR (Reichert4, CM5 chip, Spike immobilised)
T2 construct: gene S
T2 sequence (P36334 14-1353): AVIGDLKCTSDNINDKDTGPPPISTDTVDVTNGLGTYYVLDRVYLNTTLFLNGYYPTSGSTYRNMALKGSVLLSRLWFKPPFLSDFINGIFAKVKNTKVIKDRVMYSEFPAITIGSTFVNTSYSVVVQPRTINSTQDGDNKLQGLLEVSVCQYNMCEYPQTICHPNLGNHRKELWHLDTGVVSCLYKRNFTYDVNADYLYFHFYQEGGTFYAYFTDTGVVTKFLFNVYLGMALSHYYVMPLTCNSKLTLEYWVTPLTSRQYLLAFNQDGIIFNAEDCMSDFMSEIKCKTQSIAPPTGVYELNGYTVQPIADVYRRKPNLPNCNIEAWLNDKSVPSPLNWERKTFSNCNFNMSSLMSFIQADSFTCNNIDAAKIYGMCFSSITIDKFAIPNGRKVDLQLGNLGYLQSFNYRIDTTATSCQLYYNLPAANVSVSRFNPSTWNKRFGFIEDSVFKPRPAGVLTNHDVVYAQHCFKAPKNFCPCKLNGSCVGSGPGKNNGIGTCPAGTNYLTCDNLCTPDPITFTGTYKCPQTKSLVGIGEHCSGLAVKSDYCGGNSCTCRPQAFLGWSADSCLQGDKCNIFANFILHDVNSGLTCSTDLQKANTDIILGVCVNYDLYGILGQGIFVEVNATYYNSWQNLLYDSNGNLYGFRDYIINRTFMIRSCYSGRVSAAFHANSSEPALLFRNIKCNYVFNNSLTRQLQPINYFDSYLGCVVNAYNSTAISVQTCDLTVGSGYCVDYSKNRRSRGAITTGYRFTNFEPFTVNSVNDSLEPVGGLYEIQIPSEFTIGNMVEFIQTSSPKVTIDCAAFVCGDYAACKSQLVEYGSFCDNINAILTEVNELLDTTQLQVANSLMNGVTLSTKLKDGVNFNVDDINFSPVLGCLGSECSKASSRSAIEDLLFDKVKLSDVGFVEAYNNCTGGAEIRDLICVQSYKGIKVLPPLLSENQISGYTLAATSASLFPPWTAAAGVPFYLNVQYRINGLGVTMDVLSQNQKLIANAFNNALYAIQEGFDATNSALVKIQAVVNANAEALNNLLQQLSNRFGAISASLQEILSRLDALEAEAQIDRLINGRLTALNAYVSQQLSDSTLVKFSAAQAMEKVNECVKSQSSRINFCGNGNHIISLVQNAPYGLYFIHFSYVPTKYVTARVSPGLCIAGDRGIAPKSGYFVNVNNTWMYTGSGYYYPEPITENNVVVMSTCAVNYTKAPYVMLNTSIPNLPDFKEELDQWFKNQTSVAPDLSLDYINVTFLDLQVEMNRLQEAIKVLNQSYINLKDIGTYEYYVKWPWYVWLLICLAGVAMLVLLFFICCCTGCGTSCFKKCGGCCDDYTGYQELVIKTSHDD
Text: SPR (Reichert4, CM5 chip, Spike immobilised) on HCoV-OC43 Spike | we observed its interaction with the Spike proteins of various coronaviruses in vitro (Figure 5C)

HCoV-229E Spike = biological target: T3, HCoV-229E Spike (Human coronavirus 229E, UniProt P15423); assay: SPR (Reichert4, CM5 chip, Spike immobilised)
T3 construct: gene S
T3 sequence (P15423 16-1173): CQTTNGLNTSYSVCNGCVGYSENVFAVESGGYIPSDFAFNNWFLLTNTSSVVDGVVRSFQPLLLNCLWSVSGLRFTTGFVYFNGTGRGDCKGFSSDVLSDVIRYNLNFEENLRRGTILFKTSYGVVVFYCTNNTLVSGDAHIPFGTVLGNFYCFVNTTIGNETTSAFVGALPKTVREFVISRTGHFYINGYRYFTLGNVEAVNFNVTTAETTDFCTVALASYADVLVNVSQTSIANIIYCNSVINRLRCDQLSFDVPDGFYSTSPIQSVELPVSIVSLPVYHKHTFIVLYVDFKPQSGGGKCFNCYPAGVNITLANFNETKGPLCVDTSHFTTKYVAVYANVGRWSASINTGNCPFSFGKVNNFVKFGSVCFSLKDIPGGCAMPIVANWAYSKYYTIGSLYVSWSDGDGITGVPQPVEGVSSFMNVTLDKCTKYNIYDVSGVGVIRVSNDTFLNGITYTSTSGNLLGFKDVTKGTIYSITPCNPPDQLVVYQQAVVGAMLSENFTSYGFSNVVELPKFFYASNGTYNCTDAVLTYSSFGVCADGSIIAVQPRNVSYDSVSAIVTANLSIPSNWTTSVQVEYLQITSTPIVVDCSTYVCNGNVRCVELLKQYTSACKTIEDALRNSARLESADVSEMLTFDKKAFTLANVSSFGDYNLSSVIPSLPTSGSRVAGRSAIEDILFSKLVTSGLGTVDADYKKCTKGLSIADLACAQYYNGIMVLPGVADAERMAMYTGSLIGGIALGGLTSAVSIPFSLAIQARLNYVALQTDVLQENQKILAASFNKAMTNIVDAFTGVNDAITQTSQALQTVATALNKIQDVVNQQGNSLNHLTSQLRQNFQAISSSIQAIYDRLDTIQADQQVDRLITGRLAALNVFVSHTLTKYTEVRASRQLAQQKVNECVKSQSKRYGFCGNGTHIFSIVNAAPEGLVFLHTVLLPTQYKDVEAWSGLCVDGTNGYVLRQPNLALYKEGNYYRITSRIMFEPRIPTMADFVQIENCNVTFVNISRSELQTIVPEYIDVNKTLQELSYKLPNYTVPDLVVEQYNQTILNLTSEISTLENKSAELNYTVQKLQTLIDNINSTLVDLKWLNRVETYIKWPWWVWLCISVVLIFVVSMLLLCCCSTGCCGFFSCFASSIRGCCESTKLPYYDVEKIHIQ
Text: SPR (Reichert4, CM5 chip, Spike immobilised) on HCoV-229E Spike | we observed its interaction with the Spike proteins of various coronaviruses in vitro (Figure 5C)

T1 sequence (O15393 whole entry): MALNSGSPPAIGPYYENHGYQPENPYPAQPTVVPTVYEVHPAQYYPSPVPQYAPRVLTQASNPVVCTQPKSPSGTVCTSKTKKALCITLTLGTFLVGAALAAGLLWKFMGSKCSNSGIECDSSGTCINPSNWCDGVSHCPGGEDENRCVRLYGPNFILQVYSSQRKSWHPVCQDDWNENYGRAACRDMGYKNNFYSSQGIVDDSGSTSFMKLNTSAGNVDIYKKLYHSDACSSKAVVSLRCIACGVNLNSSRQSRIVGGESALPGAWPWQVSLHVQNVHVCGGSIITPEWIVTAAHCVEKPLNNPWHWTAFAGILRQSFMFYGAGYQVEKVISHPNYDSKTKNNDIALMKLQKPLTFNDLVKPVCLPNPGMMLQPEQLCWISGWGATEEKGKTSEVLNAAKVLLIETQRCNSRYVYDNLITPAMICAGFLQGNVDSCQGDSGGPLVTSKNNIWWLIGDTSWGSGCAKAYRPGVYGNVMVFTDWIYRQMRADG

**Q.** Which Kd (hTMPRSS2) does the source give for `COc1ccc2cc1Oc1ccc(cc1)C[C@H]1c3cc(c(OC)cc3CCN1C)Oc1c(OC)c(OC)cc3c1[C@H](C2)N(C)CC3` [tetrandrine] here?
**A.** 4.59 µM

**Q.** And the Kd (HCoV-OC43 Spike)?
**A.** ~21.3 µM

**Q.** And the Kd (HCoV-229E Spike)?
**A.** ~0.53 µM
